Experimental data: PubChem BioAssay (NCI)
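Results reflect a 48-hour exposure of cells in 96-well plates to compound at five concentrations. TGI: concentration producing complete growth inhibition.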

How the values were obtained:
Test in all cases: NCI tumour cell line growth inhibition, 48 h
DMS 273 small cell lung = system: DMS 273 small cell lung
M19-MEL melanoma = system: M19-MEL melanoma
LXFL 529 NSCLC = system: LXFL 529 NSCLC
XF 498 CNS = system: XF 498 CNS
RXF-631 renal = system: RXF-631 renal
DMS 114 small cell lung = system: DMS 114 small cell lung
KM20L2 colon = system: KM20L2 colon
P388/ADR leukemia = system: P388/ADR leukemia
P388 leukemia = system: P388 leukemia
SN12K1 renal = system: SN12K1 renal

Compound | TGI (DMS 273 small cell lung) [µM] | TGI (M19-MEL melanoma) [µM] | TGI (LXFL 529 NSCLC) [µM] | TGI (XF 498 CNS) [µM] | TGI (RXF-631 renal) [µM] | TGI (DMS 114 small cell lung) [µM] | TGI (KM20L2 colon) [µM] | TGI (P388/ADR leukemia) [µM] | TGI (P388 leukemia) [µM] | TGI (SN12K1 renal) [µM]
O=C1c2ccccc2C(=O)c2c(O)c(O)cc(O)c21 | > 100 | > 100 | > 100 | 86.3 | > 100 |  |  |  |  | 
NC(=O)c1cc(C2OC(CO)C(O)C2O)nn1-c1ccc([N+](=O)[O-])cc1 (configuration not stated) | > 100 |  | > 100 | > 100 |  | > 100 | > 100 |  |  | 
O=C(O)CNCc1c2ccccc2[n+]([O-])c2ccccc12 | > 100 | > 100 | > 100 |  | > 100 | > 100 | > 100 |  |  | 
CSc1sc(=S)sc1SC | > 100 | > 100 |  | > 100 |  | > 100 | > 100 | > 100 | > 100 | > 100
O=C(O)C(Br)Cc1ccc2c(c1)OCO2 (configuration not stated) |  | > 100 | > 100 | 89.3 |  | > 100 | > 100 |  |  | 
Nc1nncs1 | > 5000 | > 4550 |  | 3890 |  | > 5000 | > 4800 | 2820 | 2670 | > 5000
